Experimental findings from US9327060B2 (CARDINAL HEALTH SWITZERLAND 515 GmbH, priority 2009, dated 2016) are described below.

The nature of data set [1]: porcine drug elution PK study of the dual drug eluting coating. The settings on record: after eight (8) days of implantation; stent of FIG. 11 (sirolimus and cilostazol in one EVA/BMA layer, 100 μg BMA overcoat). The format is in vivo. An excerpt:
Another critical parameter for the performance of the thrombus resistance of a device coated with cilostazol is the duration of the drug release from the coating. This is of particular significance in the two weeks after device implantation. In the porcine drug elution PK studies of the dual drug eluting coating, both cilostazol and sirolimus were slowly released from the coating, resulting in a sustained drug release profile. The purpose of the porcine PK study is to assess the local pharmacokinetics of a drug eluting stent at a given implantation time. Normally three stents are implanted in three different coronary arteries in a pig for a given time point and then retrieved for total drug recovery analysis. The stents are retrieved at predetermined time points; namely, 1, 3 and 8 days. The stents are extracted and the total amount of drug remaining on the stents is determined by analysis utilizing HPLC (high performance liquid chromatography) for total drug amount. The difference between the original amount of drug on the stent and the amount of drug retrieved at a given time represents the amount of drug released in that period. The continuous release of drug into surrounding arterial tissue is what prevents the neointimal growth and restenosis in the coronary artery. A normal plot represents the percentage of total drug released (%, y-axis) vs. time of implantation (day, x-axis). […]

On data set [2], the source says:
Referring to FIG. 29, there is illustrated the cumulative in vivo drug release percentages from a reservoir eluting stent for each drug over a thirty day period. Curve 2902 represents the profile for cilostazol while curve 2904 represents the profile for sirolimus. FIG. 30 is a graphical representation of the amount of each drug, in micrograms, released in vivo. Curve 3002 represents the profile for cilostazol while curve 3004 represents the profile for sirolimus. The curves in the figures illustrate that both the drugs elute independently of each other with minimal or substantially no interaction. […] Since the amount of drug (by weight) is different for the drugs in their respective reservoirs, the total amount of drug released at thirty (30) days was higher for sirolimus as compared to cilostazol.

The test system of data set [3] is platelet deposition and thrombus formation on the stent surface. Briefly: in vitro bovine blood loop model. The settings on record: sirolimus/cilostazol combination coatings, FIG. 8. An excerpt: The anti-thrombotic efficacy of the above-described three configurations is illustrated in FIG. 8. FIG. 8 illustrates the anti-thrombotic properties of the sirolimus/cilostazol combination coatings described above in an in vitro bovine blood loop model. In the in vitro bovine blood loop model, fresh bovine blood is heparinized to adjust for […] (ACT) of about two hundred (200) seconds. The platelet content in the blood is labeled through the use of Indium 111. In the study, a stent is deployed in a silicone tube, which is part of a closed loop system for blood circulation. The heparinzed blood is circulated through the closed loop system by means of a circulating pump. Blood clots and thrombus builds up on a stent surface over time and reduces the flow rate of blood through the stented loop. The flow is stopped when the flow rate is reduced to fifty (50) percent of the starting value or at ninety (90) minutes if none of the tested stent reduces the flow by fifty (50) percent. The total radioactivity (In 111) on the stent surface is counted by a […] and normalized with the control unit, set as one hundred (100) percent in the chart. […]

Data set [4] in a line: in vitro release kinetics of sirolimus and cilostazol from coated stent. The class given is physicochemical. The settings on record: stent of FIG. 11 (sirolimus and cilostazol in one EVA/BMA layer, 100 μg BMA overcoat); FIG. 10.

`CO[C@H]1C[C@@H]2CC[C@@H](C)[C@@](O)(O2)C(=O)C(=O)N2CCCC[C@H]2C(=O)O[C@H]([C@H](C)C[C@@H]2CC[C@@H](O)[C@H](OC)C2)CC(=O)[C@H](C)/C=C(\C)[C@@H](O)[C@@H](OC)C(=O)[C@H](C)C[C@H](C)/C=C/C=C/C=C/1C` [Rapamycin]: in data set [1], the “drug remained in the drug coating” value was around 80%. The “cumulative in vivo elution” value in data set [2] was “sixty (60) to seventy (70)”.

Take `O=C1CCc2cc(OCCCCc3nnnn3C3CCCCC3)ccc2N1` [cilostazol, 6[4-(1-cyclohexyl-1H-tetrazol-5-yl)-butoxy]-3,4-dihydro-2-(1H)-quinolinone]: the thrombus formation entry in data set [3] was “significantly reduces thrombus formation”. For the same compound, the “drug remained in the drug coating” value in data set [1] is reported as around 80%. Also, the in vitro release in data set [4] was around 35%. Also, the “cumulative in vivo elution” value in data set [2] is given as “sixty (60) to seventy (70)”.
